According to patent US12151018B2 (priority 2019, dated 2024):

Tested on: Caenorhabditis elegans
Conditions: in vivo

In the case of argireline, the “amount needed alone for the same level of effect as argireline 100 ppm plus Z. piperitum extract 500 ppm” value is reported as 100,000 ppm.
